Reference: patent publication US6548082B1, “Methods for treating apnea and apnea disorders using optically pure R(+) ondansetron” (Sepracor Inc., priority 1999, dated 2003)
Read-outs that look alike come from different tables or passages of the source.

How the values were obtained:
mongrel dogs [1] = details: dog, in vivo
Protocol: (§1) An investigation was conducted to determine the effect of racemic ondansetron and the R(+)- and S(−)-enanatiomers of ondansetron in causing cardiac arrhythmias (cardiotoxicity) resulting from a lengthening of the cardiac action potential.
(§2) The order of administration was randomized to ensure that each dog received only one treatment.

mongrel dogs [2] = experiment: Electrophysiological (EKG) effects of ondansetron enantiomers and racemate in dogs, rising cumulative doses; details: for Death or survival of dogs during or shortly after the experiment: four dogs per treatment, 0-4.0 mg/kg cumulative
Protocol: as §1, §2

Cc1nccn1C[C@H]1CCc2c(c3ccccc3n2C)C1=O [R(+)-Ondansetron, R(+) ondansetron]
Prolongation of QTc interval, compared among treatments (mongrel dogs [1]): shortest
Cardiotoxicity, compared among treatments (mongrel dogs [2]; conclusion from QTc and mortality data in dogs): less cardiotoxicity than either S(−) ondansetron or racemic ondansetron
Death or survival of dogs during or shortly after the experiment (mongrel dogs [2]): survived

Cc1nccn1C[C@@H]1CCc2c(c3ccccc3n2C)C1=O [S(−)-Ondansetron, S(−) ondansetron]
Prolongation of QTc interval, compared among treatments (mongrel dogs [1]): most prolonged
QTc Interval (mongrel dogs [1]; 4 mg/kg): 0.44 ± 0.03 s

Cc1nccn1CC1CCc2c(c3ccccc3n2C)C1=O (racemic) [R,S-Ondansetron, ondansetron]
Prolongation of QTc interval, compared among treatments (mongrel dogs [2]; dogs, comparison in words of the three treatments): most prolonged
Death or survival of dogs during or shortly after the experiment (mongrel dogs [2]): survived
